Experimental findings from patent publication US8501679B2, “Cyclic, cystein-free protein” (priority 2007, dated 2013) are described below.

“Also recorded” adds a separate entry of the source. Where a SMILES comes first, the peptide text is derived from it. Bridges are numbered along the chain shown (N, C = ends).

Data set [1] relates to pulmonary oedema / acute lung injury in Wistar rats. As to the kind of experiment: Experimental animal study pulmonary oedema: lungs rinsed with acidified saline, arterial oxygen content. In kind it is in vivo, rat. To be noted: for improvement in the lung function (increased oxygen content in arterial blood): laboratory animals, injected into the lungs as a fog or aqueous solution, within 3 to 5 hours; for oxygen content of the arterial blood, % relative to the value before rinsing the lungs / oxygen content in the blood after administering protein: rat; for oxygen content of the arterial blood, % relative to the value before rinsing the lungs: 125 μg protein intratracheal, 180 minutes after rinsing the lungs, 20% at 60 minutes and without protein; for oxygen content in the blood after administering protein: intratracheal as a fog one hour after lung rinsing, FIG. 3A/3B. As for the experimental part: For the simulation of an acute lung injury and for the formation of a pulmonary oedema, the lungs of laboratory animals, e.g., mice or rats, can be rinsed several times with an acidified saline solution in a manner common in laboratories (for example, according to Isik F. et al., Eur J Cardiothorac Surg (2005); 28: 301-305). The result is a decrease in lung function.
Male Wistar rats (weighing from 250 g to 350 g) are anesthetized with Rompun® (0.02 ml/100 g) and Ketavet® (0.1 ml/100 g). The respiration is done with a cycle of 72 blows/minute, with an inhalation time of 0.2 seconds and an exhalation time of 0.5 seconds. The body temperature ranges, on average, from 37° C. to 39° C. Under normal conditions, the PaO2 (arterial oxygen partial pressure) ranges from 500 to 550 mm Hg.
For the simulation of an acute lung injury and for the formation of a pulmonary oedema, the lungs are rinsed 7 to 9 times with an acidified saline solution (pH 5).
After one hour, the proteins comprising amino acid sequence SEQ ID NO:1 or SEQ ID NO:2, dissolved in sterile saline solution, are administered intratracheally as a fog (maximum volume administered: 0.5 ml).
At intervals of 60 minutes each, arterial blood (0.1 ml) is withdrawn from the animals, and the oxygen content is determined in % relative to the normal value.
The verification of the stimulating effect of a protein according to the present invention, e.g., of a protein comprising amino acid sequence SEQ ID NO:1, SEQ ID NO:2 or SEQ ID NO:3, on the lung function is made via experimental animal studies in which a pulmonary oedema is induced. The experimental procedure is described in Example 5.
For the intratracheal inhalation, 125 μg protein are, in each case, dissolved in 150 mM saline solution pH 7.3. The oxygen content of the arterial blood is measured immediately before rinsing the lungs, 60 minutes after rinsing the lungs and 180 minutes after rinsing the lungs. The oxygen content immediately before rinsing the lungs is determined to be 100%. 60 minutes after the respective final lung rinsing, the oxygen content in the blood amounts to, on average, only 20%. Within 3 hours, the percentage oxygen content rises to values of […]

In data set [2] the test system is sodium ion channels of H441 cells. As to the kind of experiment: Activation of ion channels of human epithelial cells, patch-clamp (whole cell / cell-attached). The format is cell-based. Conditions: FIG. 2A/2B. An excerpt: Furthermore, a method common in laboratories is to detect the activation of ion channels by means of patch-clamp experiments, and this is described, for example, in Clunes M. T. et al, J Physiol Volume 557, No. 3, 809-819 (Jun. 15, 2004). For patch-clamp examinations of ion channels, a glass cannula is stretched thin and filled with a neutral buffer solution. The glass cannula (patch-clamp pipette) is carefully pressed onto an intact epithelial cell. A piece of membrane is located below the pipette. An electrical resistance is thereby produced between the interior of the pipette and the external solution. An electrode attached to a sensitive amplifier dips into the pipette solution.
The electrophysiological experiments were performed on human H441 cells. H441 cells are human lung epithelial cells which are involved in the diffusion of water and electrolytes in the lungs.
The H441 cells were obtained from the American Tissue Culture Collection and cultivated in conventional cell culture vessels in RPMI 1640 medium (Invitrogen). […]
This protocol was carried out by adding proteins comprising amino acid sequence SEQ ID NO:1 or SEQ ID NO:2 as well as the sodium channel inhibitor amiloride. The current dissipations thus obtained were stored and analyzed by means of the program PCLAMP 6.0.

For data set [3], the system named is human immune cells in fresh blood (IL-6 release). As to the kind of experiment: Determination of inflammatory parameters: release of Interleukin-6 from human fresh blood (ELISA). To be noted: for release of the inflammation marker IL-6: human immune cells from blood incubated with the substance; for Concentration of Interleukin-6 (average of three measurements): human fresh blood, 24 hours at 37° C. The format is cell-based. The procedure:
For the examination, human immune cells from the blood are mixed with protein according to the present invention at a small concentration and are incubated in a manner common in laboratories. Subsequently, marker proteins for inflammations are determined in cell-free culture media by conventional methods.
Fresh human blood has a very sensitive reaction to pro-inflammatory molecules, among other things, with a release of the inflammation marker Interleukin-6 (IL-6). For determining the pro-inflammatory reaction, samples of human fresh blood at concentrations of the protein comprising amino acid sequence SEQ ID NO:2 were incubated at the following concentrations from 1 ng/ml to 10 μg/ml. After an incubation of 24 hours at 37° C., the inflammation marker Interleukin-6 was quantitatively determined in the solution via ELISA. LPS served as a positive control (concentrations of 3 ng/ml and 100 ng/ml).
In doing so, the measured data, which are indicated in TABLE 1 and which show the influence of the peptide protein comprising amino acid sequence SEQ ID NO:2 in comparison to LPS on the release of the inflammation marker Interleukin-6 from blood cells, were obtained.
On the technique in general: In an ELISA, binding on a coated surface is turned into a signal by an enzyme label.

Consider `CC[C@H](C)[C@H](NC(=O)[C@H](C)NC(=O)[C@H](CO)NC(=O)[C@H](CC(C)C)NC(=O)[C@H](CC(C)C)NC(=O)[C@H](CC(N)=O)NC(=O)[C@@H](N)C(C)C)C(=O)N[C@H]1CCCCNC(=O)CC[C@@H](C(=O)N2CCC[C@H]2C(=O)N[C@H](C(=O)N[C@@H](Cc2ccc(O)cc2)C(=O)N[C@@H](CC(C)C)C(=O)NCC(=O)O)[C@@H](C)CC)NC(=O)[C@H](Cc2ccc(O)cc2)NC(=O)[C@H](Cc2c[nH]c3ccccc23)NC(=O)[C@@H]2CCCN2C(=O)[C@H](CCCCN)NC(=O)[C@H](C)NC(=O)[C@H](CCC(=O)O)NC(=O)[C@H](C)NC(=O)CNC(=O)[C@H](CCC(=O)O)NC(=O)[C@@H]2CCCN2C(=O)[C@H]([C@@H](C)O)NC(=O)[C@H](CCC(=O)O)NC(=O)[C@H](CCCNC(=N)N)NC(=O)[C@H](CCC(N)=O)NC(=O)CNC(=O)[C@@H]2CCCN2C(=O)[C@H](CO)NC1=O` [SEQ ID NO:1] (H-VNLLSAIKSPGQRETPEGAEAKPWYEPIYLG-OH; lactam 8-26), for which, in data set [1], the “improvement in the lung function (increased oxygen content in arterial blood)” value is “distinct improvement in the lung function”; the “oxygen content of the arterial blood, % relative to the value before rinsing the lungs” value was found to be 62%; the “oxygen content in the blood after administering protein” value was “increased”. The “activation of the sodium ion channels (amplitude of electrical signal)” value in data set [2] is “activation of the sodium ion channels”. Besides, the “release of the inflammation marker IL-6” value in data set [3] was “cannot be detected”.
For `C[C@@H]1NC(=O)CNC(=O)[C@H](CCC(=O)O)NC(=O)[C@@H]2CCCN2C(=O)[C@H]([C@@H](C)O)NC(=O)[C@H](CCC(=O)O)NC(=O)[C@H](CCCNC(=N)N)NC(=O)[C@H](CCC(N)=O)NC(=O)CNC(=O)[C@@H]2CCCN2C(=O)[C@H](CO)NC(=O)[C@@H](N)CCCCNC(=O)CC[C@@H](C(=O)O)NC(=O)[C@H](Cc2ccc(O)cc2)NC(=O)[C@H](Cc2c[nH]c3ccccc23)NC(=O)[C@@H]2CCCN2C(=O)[C@H](CCCCN)NC(=O)[C@H](C)NC(=O)[C@H](CCC(=O)O)NC1=O` [SEQ ID NO:2, (NH2)Lys-Ser-Pro-Gly-Gln-Arg-Glu-Thr-Pro-Glu-Gly-Ala-Glu-Ala-Lys-Pro-Trp-Tyr-Glu(COOH)], the “improvement in the lung function (increased oxygen content in arterial blood)” value in data set [1] is on record as “distinct improvement in the lung function”. In addition, the “oxygen content of the arterial blood, % relative to the value before rinsing the lungs” value in data set [1] is recorded as 75%. The “oxygen content in the blood after administering protein” value in data set [1] is “increased”. Further, in data set [2], the “activation of the sodium ion channels (amplitude of electrical signal)” value is recorded as “activation of the sodium ion channels”. Further, the “Concentration of Interleukin-6 (average of three measurements)” value in data set [3] (1 ng/ml), in data set [3] (3 ng/ml), in data set [3] (1 μg/ml) and in data set [3] (10 μg/ml) was “less than 0.5 pg/ml” in each case. For the same compound, the “release of the inflammation marker IL-6” value in data set [3] was “cannot be detected; also recorded: virtually no inflammation marker IL-6 is released”.
